Measurements: ChEMBL document CHEMBL2062447, “The cephalostatins. 22. synthesis of bis-steroidal pyrazine pyrones (1)” (2012)

Each compound was assayed on P388 (assay: Growth inhibition of mouse P388 cells). Conditions: read-out: ED50 (the source's name).
Format: functional

Structure (SMILES) | EC50 [µM]
CC(=O)O[C@H]1CC[C@H]2[C@@H]3CC[C@H]4Cc5nc6c(nc5C[C@]4(C)[C@H]3CC[C@]12C)C[C@@H]1CC[C@@H]2[C@H](CC[C@]3(C)[C@@H](OC(C)=O)CC[C@@H]23)[C@@]1(C)C6 | 91
C[C@]12Cc3nc4c(nc3C[C@@H]1CC[C@@H]1[C@@H]2CC[C@]2(C)C(=O)CC[C@@H]12)C[C@@]1(C)[C@@H](CC[C@@H]2[C@@H]1CC[C@]1(C)C(=O)CC[C@@H]21)C4 | 120
C[C@@H]1[C@]2(O[C@H]3C=C4[C@@H]5CC[C@H]6Cc7nc8c(nc7C[C@]6(C)[C@H]5C[C@@H](O)[C@]4(C)[C@]31O)C[C@@H]1CC[C@H]3C4=C[C@@H]5O[C@]6(O[C@](C)(CO)C[C@H]6O)[C@@H](C)[C@]5(O)[C@@]4(C)[C@H](O)C[C@@H]3[C@@]1(C)C8)O[C@](C)(CO)C[C@H]2O [CEPHALOSTATIN 12] | 0.076
C[C@@H]1[C@]2(O[C@H]3C=C4[C@@H]5CC[C@H]6Cc7nc8c(nc7C[C@]6(C)[C@H]5C[C@@H](O)[C@]4(C)[C@]31O)C[C@@H]1CC[C@H]3C4=CC[C@@H]5[C@H](C)[C@@]6(OC[C@]45C(=O)C[C@@H]3[C@@]1(C)C8)OC(C)(C)C[C@H]6O)O[C@](C)(CO)C[C@H]2O [CEPHALOSTATIN 1] | 0.001
C[C@]12Cc3nc4c(nc3C[C@@H]1CC[C@@H]1[C@@H]2CC[C@]2(C)C(OS(=O)(=O)C(F)(F)F)=CC[C@@H]12)C[C@@]1(C)[C@@H](CC[C@@H]2[C@@H]1CC[C@]1(C)C(OS(=O)(=O)C(F)(F)F)=CC[C@@H]21)C4 | 42
C[C@]12Cc3nc4c(nc3C[C@@H]1CC[C@H]1[C@H]3CC=C(c5ccc(=O)oc5)[C@@]3(C)CC[C@@H]12)C[C@@]1(C)[C@@H](CC[C@H]2[C@H]3CC=C(c5ccc(=O)oc5)[C@@]3(C)CC[C@@H]21)C4 | 57
C[C@]12Cc3nc4c(nc3C[C@@H]1CC[C@@H]1[C@@H]2[C@@H](O)C[C@]2(C)/C(=C/[C@@H]3CC(=O)C=CO3)CC[C@@H]12)C[C@@]1(C)[C@@H](CC[C@@H]2[C@@H]1[C@@H](O)C[C@]1(C)/C(=C/[C@H]3CC(=O)C=CO3)CC[C@@H]21)C4 | 25
